Measurements reported in US20250136608A1, “COMPOUNDS CONTAINING A GEM-DIFLUORIDE GROUP AND PREPARATION METHOD AND USE THEREOF” (CGENETECH (SUZHOU, CHINA) CO., LTD, priority 2022, published 2025).

What was measured:
[1] = Oral pharmacokinetic test in mice; conditions: male, C57, mouse, in vivo, 10 mg/kg
JAK3 = JAK3 (Homo sapiens, UniProt P52333); assay: JAK3 kinase inhibitory activity test (HTRF); format: biochemical; conditions: JAK3 0.1 ng/μL, ATP 3 μM, substrate 1 μM, 3 h
in vivo = conditions: male, C57, mouse, po

Row | Structure (SMILES) | IC50 (JAK3) [nM] | AUC(0-inf) (in vivo; 10 mg/kg) [ng·h/mL] | AUC(0-t) (in vivo; 10 mg/kg) [ng·h/mL] | Cmax (in vivo; 10 mg/kg) [ng/mL] | MRT inf (in vivo; 10 mg/kg) [min] | MRT last (in vivo; 10 mg/kg) [min] | Tmax (in vivo; 10 mg/kg) [min] | half-life (in vivo; 10 mg/kg) [min] | also measured
1 | N#CCC1(n2cc(-c3ncnc4[nH]ccc34)cn2)CCC(F)(F)CC1 [Compound 1] |  |  |  |  |  |  |  |  | AUC(0-inf) [1]: 2150 ng·h/mL; AUC(0-t) [1]: 2130 ng·h/mL; Cmax [1]: 1480 ng/mL; MRT inf [1]: 81 min; MRT last [1]: 75 min; Tmax [1]: 19.8 min; half-life [1]: 70.8 min
2 | N#CCC1(n2cc(-c3ncnc4[nH]ccc34)cn2)CCC(C(F)(F)F)CC1 (centres unmarked) [Compound 3] | 151 |  |  |  |  |  |  |  | 
3 | N#CCC(C1CCC(F)(F)CC1)n1cc(-c2ncnc3[nH]ccc23)cn1 (centres unmarked) [Compound 4] | 402 |  |  |  |  |  |  |  | 
4 | N#CCC(C1CCC(C(F)(F)F)CC1)n1cc(-c2ncnc3[nH]ccc23)cn1 (centres unmarked) [Compound 5] | 488 | 2000 | 1980 | 1410 | 78.6 | 73.2 | 15 | 81.6 | 
5 | N#CC[C@@H](CCC(F)(F)F)n1cc(-c2ncnc3[nH]ccc23)cn1 [Compound 6-1] | 311 | 9240 | 9230 | 6320 | 69 | 68.4 | 15 | 50.4 | 
6 | N#CC[C@H](CCC(F)(F)F)n1cc(-c2ncnc3[nH]ccc23)cn1 [Compound 6-2] | 116 | 4770 | 4760 | 6770 | 36.6 | 36 | 4.8 | 44.4 | 
7 | N#CCC(C1CC(F)(F)C1)n1cc(-c2ncnc3[nH]ccc23)cn1 (centres unmarked) [Compound 7] | 479 | 1660 | 1660 | 3190 | 30.6 | 29.4 | 4.8 | 89.4 | 
8 | CC(C)(C(CC#N)n1cc(-c2ncnc3[nH]ccc23)cn1)C(F)(F)F (centres unmarked) [Compound 8] | 419 |  |  |  |  |  |  |  | 
9 | N#CCC(n1cc(-c2ncnc3[nH]ccc23)cn1)C1(C(F)(F)F)CCC1 (centres unmarked) [Compound 9] | 401 |  |  |  |  |  |  |  | 
10 | N#CC[C@H](C1CCCC1)n1cc(-c2ncnc3[nH]ccc23)cn1 [Ruxolitinib, reference compound] |  |  |  |  |  |  |  |  | AUC(0-inf) (in vivo; 5 mg/kg): 580 ng·h/mL; AUC(0-t) (in vivo; 5 mg/kg): 578 ng·h/mL; Cmax (in vivo; 5 mg/kg): 893 ng/mL; MRT inf (in vivo; 5 mg/kg): 42.6 min; MRT last (in vivo; 5 mg/kg): 42 min; Tmax (in vivo; 5 mg/kg): 7.8 min; half-life (in vivo; 5 mg/kg): 30 min
